The record followed here is patent publication US10710994B2, “Oxadiazole transient receptor potential channel inhibitors” (Genentech, Inc., priority 2018, dated 2020).

Where two headings read alike, the source gives them in different places.

The experiment deals with human TRPA1 channel (Homo sapiens (Human), UniProt O75762). Briefly: hTRPA1 CHO Ca2+ FLIPR Tetra assay: block of cinnamaldehyde induced calcium influx. The following applies: CHO cells expressing TRPA1, Hill coefficient fixed to 1.5. It is filed as cell-based. Put shortly: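 TRPA1-expressing CHO cells loaded with calcium indicator dye (1 h 37° C, then 15 min room temperature) in HBSS/20 mM HEPES pH 7.4/0.02% BSA. IC50 from fits with fixed Hill coefficient.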
Sequence of human TRPA1 channel (O75762 whole entry): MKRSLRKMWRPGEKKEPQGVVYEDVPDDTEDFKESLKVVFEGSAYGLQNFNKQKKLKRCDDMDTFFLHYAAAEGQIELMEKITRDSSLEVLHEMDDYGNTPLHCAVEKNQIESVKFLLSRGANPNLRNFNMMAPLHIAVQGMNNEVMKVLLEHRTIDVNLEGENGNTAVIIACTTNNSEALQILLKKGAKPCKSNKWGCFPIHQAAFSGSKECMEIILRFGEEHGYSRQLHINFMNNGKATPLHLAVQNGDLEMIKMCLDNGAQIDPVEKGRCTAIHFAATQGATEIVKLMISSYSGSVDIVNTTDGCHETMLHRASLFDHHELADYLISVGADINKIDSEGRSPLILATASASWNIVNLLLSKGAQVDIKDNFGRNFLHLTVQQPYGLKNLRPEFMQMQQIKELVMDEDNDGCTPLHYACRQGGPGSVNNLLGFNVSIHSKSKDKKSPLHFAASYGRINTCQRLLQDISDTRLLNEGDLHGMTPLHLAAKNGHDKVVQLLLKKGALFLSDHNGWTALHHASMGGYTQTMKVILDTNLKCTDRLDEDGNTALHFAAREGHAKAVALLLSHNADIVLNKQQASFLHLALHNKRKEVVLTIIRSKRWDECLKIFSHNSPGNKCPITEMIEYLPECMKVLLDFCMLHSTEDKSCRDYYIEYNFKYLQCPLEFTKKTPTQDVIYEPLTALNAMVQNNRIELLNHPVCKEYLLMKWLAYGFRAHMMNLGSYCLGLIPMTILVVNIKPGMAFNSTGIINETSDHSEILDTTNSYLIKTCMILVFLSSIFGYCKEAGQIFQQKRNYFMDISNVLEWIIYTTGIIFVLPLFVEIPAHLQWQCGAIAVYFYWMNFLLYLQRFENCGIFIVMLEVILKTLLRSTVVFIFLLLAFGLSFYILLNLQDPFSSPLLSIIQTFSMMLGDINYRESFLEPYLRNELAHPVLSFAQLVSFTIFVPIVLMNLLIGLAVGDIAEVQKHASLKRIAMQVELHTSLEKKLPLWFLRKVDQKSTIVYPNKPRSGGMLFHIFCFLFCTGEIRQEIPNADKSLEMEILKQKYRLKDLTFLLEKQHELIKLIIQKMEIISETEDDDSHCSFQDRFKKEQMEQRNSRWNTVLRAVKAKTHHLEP

Setting [1] is: read-out: hTRPA1 IC50 10 min, 10 minutes incubation with compound before cinnamaldehyde (about EC80).
[2] abbreviates: read-out: hTRPA1 IC50 90 min, 90 minutes incubation with compound before cinnamaldehyde (about EC80).

One may read the IC50 as the concentration at which inhibition is half-maximal.

With `Cn1ncc2ncn(Cc3nc([C@@H]4CO[C@@H](c5ccc(Cl)cc5)C4)no3)c(=O)c21` [Example 151, 6-((3-((3R,5R)-5-(4-chlorophenyl)tetrahydro-furan-3-yl)-1,2,4-oxadiazol-5-yl)methyl)-1-methyl-1,6-dihydro-7H-pyrazolo[4,3-d] pyrimidin-7-one], the IC50 stood at 47 nM under setting [1] and 32 nM under setting [2].

With `Nc1nc2cccnc2n1Cc1nc([C@@H]2CO[C@@H](c3ccc(Cl)cc3)C2)no1` [Example 155, 3-[[3-[(3R,5R)-5-(4-chlorophenyl)tetrahydro-furan-3-yl]-1,2,4-oxadiazol-5-yl]methyl]imidazo[4,5-b]pyridin-2-amine], the IC50 runs as follows: under setting [1], 10.3 nM; under setting [2], 7.5 nM.
